Measured values: patent US6683103B2, “Sulfonamides for treatment of endothelin-mediated disorders” (Texas Biotechnology Corporation, priority 1997, dated 2004)

How the values were obtained:
human ETA receptors = biological target: T1, human ETA receptors (Homo sapiens, UniProt P25101); experiment: Binding Test #1: inhibition of 125I-ET-1 binding to ETA receptors (TE 671 cell membranes); settings: Table 1; † incubation at 24° C.; read-out: ETA
T1 construct: endogenous in cells; host or cells: TE 671 cells (ATCC HTB 139)
T1 sequence (P25101 21-427): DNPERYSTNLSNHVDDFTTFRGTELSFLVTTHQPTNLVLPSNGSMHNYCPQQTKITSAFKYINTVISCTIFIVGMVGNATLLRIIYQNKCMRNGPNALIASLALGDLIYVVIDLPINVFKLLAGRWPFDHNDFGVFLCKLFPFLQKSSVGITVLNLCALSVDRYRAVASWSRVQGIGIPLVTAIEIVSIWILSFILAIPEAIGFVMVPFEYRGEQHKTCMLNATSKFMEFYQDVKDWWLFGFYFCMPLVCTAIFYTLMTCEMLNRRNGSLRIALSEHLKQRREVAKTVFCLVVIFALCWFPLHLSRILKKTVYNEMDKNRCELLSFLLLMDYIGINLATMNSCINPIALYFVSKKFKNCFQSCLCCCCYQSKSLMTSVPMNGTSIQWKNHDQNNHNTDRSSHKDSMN
Outline: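 Radioligand competition in triplicate: ¹²⁵I-endothelin-1 displaced by test compound (1 nM–100 μM final) from ETA-bearing TE 671 cell membranes in HEPES pH 7.4 binding buffer with NaCl, MgCl2 and bacitracin. Incubation 16–18 h at 4 °C (or at 24 °C); 80 nM ET-1 defines nonspecific binding; pellet radioactivity gives percent inhibition.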

human ETB receptor = biological target: T2, human ETB receptor (Homo sapiens, UniProt P24530); experiment: Binding Test #2: inhibition of 125I-ET-1 binding to ETB receptors (transfected COS7 cell membranes); settings: Table 1; † incubation at 24° C.; read-out: ETB
T2 construct: expressed in transfected cells; host or cells: COS7 cells
T2 sequence (P24530 27-442): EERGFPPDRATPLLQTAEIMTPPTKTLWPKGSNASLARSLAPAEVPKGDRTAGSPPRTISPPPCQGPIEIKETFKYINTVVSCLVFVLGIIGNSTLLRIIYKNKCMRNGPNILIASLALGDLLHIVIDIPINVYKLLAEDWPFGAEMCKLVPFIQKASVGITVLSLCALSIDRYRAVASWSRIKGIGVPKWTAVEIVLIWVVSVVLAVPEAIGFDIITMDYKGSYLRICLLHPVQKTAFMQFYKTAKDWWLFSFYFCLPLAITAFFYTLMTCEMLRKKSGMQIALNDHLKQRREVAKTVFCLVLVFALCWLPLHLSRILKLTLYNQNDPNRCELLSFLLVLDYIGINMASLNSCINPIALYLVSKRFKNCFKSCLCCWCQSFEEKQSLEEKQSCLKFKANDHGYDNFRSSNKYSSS
Outline: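 Competition with 125I-ET-1 for binding to membranes from COS7 cells transfected with human ETB receptor, used at 1 μg/50 μl binding buffer. Membranes prepared in HEPES pH 7.4 with aprotinin, including a DNase/MnCl2 step at 37 °C for 30 min.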

Row | Compound | IC50 (human ETA receptors) [µM] | IC50 (human ETB receptor) [µM]
1 | Cc1cc2c(cc1CC(=O)c1sccc1S(=O)(=O)Nc1onc(C)c1Cl)OCO2 [N-(4-chloro-3-methyl-5-isoxazolyl)-2-[2-methyl-4,5-(methylenedioxy)phenylacetyl]thiophene-3-sulfonamide] | 0.0032 | 9
2 | Cc1noc(NS(=O)(=O)c2ccsc2C(=O)Cc2ccc3c(c2)OCO3)c1Cl [N-(4-chloro-3-methyl-5-isoxazolyl)-2-[(3,4-(methylenedioxy)phenylacetyl]thiophene-3-sulfonamide] | 0.021 | 6.5
